According to patent publication US20220227789A1, “NOVEL INDOLIZINE-2-CARBOXAMIDES ACTIVE AGAINST THE HEPATITIS B VIRUS (HBV)” (AiCuris GmbH & Co. KG, priority 2019, published 2022):

How the values were obtained:
[1] = molecular target: T1, HBV core protein (C-terminal truncated, 149 aa assembly domain) (Hepatitis B virus genotype D subtype adw, UniProt P03147, C107A/C48A/C61A); assay: Biochemical capsid assembly assay (fluorescence quenching); settings: BODIPY-FL labelled core protein, assembly started with NaCl, read after 6 min; read-out: Assembly Activity
T1 construct: The C-terminal truncated core protein containing 149 amino acids of the N-terminal assembly domain; made in house; host or cells: E. coli BL21 (DE3) Rosetta2, plasmid pET21b
Protocol: Biochemical Capsid Assembly Assay
The screening for assembly effector activity was done based on a fluorescence quenching assay published by Zlotnick et al. (2007). The C-terminal truncated core protein containing 149 amino acids of the N-terminal assembly domain fused to a unique cysteine residue at position 150 and was expressed in E. coli using the pET expression system (Merck Chemicals, Darmstadt). Purification of core dimer protein was performed using a sequence of size exclusion chromatography steps. In brief, the cell pellet from 1 L BL21 (DE3) Rosetta2 culture expressing the coding sequence of core protein cloned NdeI/XhoI into expression plasmid pET21b was treated for 1 h on ice with a native lysis buffer (Qproteome Bacterial Protein Prep Kit; Qiagen, Hilden). After a centrifugation step the supernatant was precipitated during 2 h stirring on ice with 0.23 g/ml of solid ammonium sulfate. Following further centrifugation the resulting pellet was resolved in buffer A (100 mM Tris, pH 7.5; 100 mM NaCl; 2 mM DTT) and was subsequently loaded onto a buffer A equilibrated CaptoCore 700 column (GE HealthCare, Frankfurt). The column flow through containing the assembled HBV capsid was dialyzed against buffer N (50 mM NaHCO3 pH 9.6; 5 mM DTT) before urea was added to a final concentration of 3M to dissociate the capsid into core dimers for 1.5 h on ice. The protein solution was then loaded onto a 1 L Sephacryl 5300 column. After elution with buffer N core dimer containing fractions were identified by SDS-PAGE and subsequently pooled and dialyzed against 50 mM HEPES pH 7.5; 5 mM DTT. To improve the assembly capacity of the purified core dimers a second round of assembly and disassembly starting with the addition of 5 M NaCl and including the size exclusion chromatography steps described above was performed. From the last chromatography step core dimer containing fractions were pooled and stored in aliquots at concentrations between 1.5 to 2.0 mg/ml at −80° C.
Immediately before labelling the core protein was reduced by adding freshly prepared DTT in a final concentration of 20 mM. After […] on ice storage buffer and DTT was removed using a Sephadex G-25 column (GE HealthCare, Frankfurt) and 50 mM HEPES, pH 7.5. For labelling 1.6 mg/ml core protein was incubated at 4° C. and darkness overnight with BODIPY-FL maleimide (Invitrogen, Karlsruhe) in a final concentration of 1 mM. After labelling the free dye was removed by an additional desalting step using a Sephadex G-25 column. Labelled core dimers were stored in aliquots at 4° C. In the dimeric state the fluorescence signal of the labelled core protein is high and is quenched during the assembly of the core dimers to high molecular capsid structures. The screening assay was performed in black 384 well microtiter plates in a total assay volume of 10 μl using 50 mM HEPES pH 7.5 and 1.0 to 2.0 μM labelled core protein. Each screening compound was added in 8 different concentrations using a 0.5 log-unit serial dilution starting at a final concentration of 100 μM, 31.6 μM or 10 μM, In any case the DMSO concentration over the entire microtiter plate was 0.5%. The assembly reaction was started by the injection of NaCl to a final concentration of […] which induces the assembly process to approximately 25% of the maximal quenched signal. 6 min after starting the reaction the fluorescence signal was measured using a Clariostar plate reader (BMG Labtech, Ortenberg) with an excitation of 477 nm and an emission of 525 nm. As 100% and 0% assembly control HEPES buffer containing 2.5 M and 0 M NaCl was used. Experiments were performed thrice in triplicates. EC50 values were calculated by non-linear regression analysis using the Graph Pad Prism 6 software (GraphPad Software, La Jolla, USA).

HBV = HBV replication assay: HBV DNA from the supernatants of HepAD38 cells; type: cell-based; settings: Hepatitis B virus, 144 h, HBV DNA in supernatant by qPCR at day 6, read-out: Cell Activity
Protocol: Determination of HBV DNA from the Supernatants of HepAD38 Cells
The anti-HBV activity was analysed in the stable transfected cell line HepAD38, which has been described to secrete high levels of HBV virion particles (Ladner et al., 1997). In brief, HepAD38 cells were cultured at 37° C. at 5% CO2 and 95% humidity in 200 μl maintenance medium, which was Dulbecco's modified Eagle's medium/Nutrient Mixture F-12 (Gibco, Karlsruhe), 10% fetal bovine serum (PAN Biotech Aidenbach) supplemented with 50 μg/ml penicillin/streptomycin (Gibco, Karlsruhe), 2 mM L-glutamine (PAN Biotech, Aidenbach), 400 μg/ml G418 (AppliChem, Darmstadt) and 0.3 μg/ml tetracycline. Cells were subcultured once a week in a 1:5 ratio, but were usually not passaged more than ten times. For the assay 60,000 cells were seeded in maintenance medium without any tetracycline into each well of a 96-well plate and treated with serial half-log dilutions of test compound. To minimize edge effects the outer 36 wells of the plate were not used but were filled with assay medium. On each assay plate six wells for the virus control (untreated HepAD38 cells) and six wells for the cell control (HepAD38 cells treated with 0.3 μg/ml tetracycline) were allocated, respectively. In addition, one plate set with reference inhibitors like BAY 41-4109, entecavir, and lamivudine instead of screening compounds were prepared in each experiment. In general, experiments were performed thrice in triplicates. At day 6 HBV DNA from 100 μl filtrated cell culture supernatant (AcroPrep Advance 96 Filter Plate, […] Supor membran, PALL GmbH, Dreieich) was automatically purified on the MagNa Pure LC instrument using the MagNA Pure 96 DNA and Viral NA Small Volume Kit (Roche Diagnostics, Mannheim) according to the instructions of the manufacturer. EC50 values were calculated from relative copy numbers of HBV DNA In brief, 5 μl of the 100 μl eluate containing HBV DNA were subjected to PCR LC480 Probes Master Kit (Roche) together with 1 μM antisense primer […], 0.5 μM sense primer […], 0.3 μM hybprobes […]-FL and LC640-[…]-PH (TIBMolBiol, Berlin) to a final volume of […]. The PCR was performed on the Light Cycler 480 real time system (Roche Diagnostics, Mannheim) using the following protocol: Pre-incubation for 1 min at 95° C., amplification: 40 cycles×(10 sec at 95° C., 50 sec at 60° C., 1 sec at 70° C.), cooling for 10 sec at 40° C. Viral load was quantitated against known standards using HBV plasmid DNA of pCH-9/3091 (Nassal et al., 1990, Cell 63: 1357-1363) and the LightCycler 480 SW 1.5 software (Roche Diagnostics, Mannheim) and EC50 values were calculated using non-linear regression with GraphPad Prism 6 (GraphPad Software Inc., La Jolla, USA).

T1 sequence (P03147 1-150, looked up, stated change not applied): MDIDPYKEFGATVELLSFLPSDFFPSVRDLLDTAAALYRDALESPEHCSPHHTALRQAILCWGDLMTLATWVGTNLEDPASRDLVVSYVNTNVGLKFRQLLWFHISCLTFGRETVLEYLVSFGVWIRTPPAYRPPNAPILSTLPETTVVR

Row | SMILES | IC50 [1] [µM] | EC50 (HBV) [µM]
1 | COCC1(N(C)C(=O)c2[nH]nc3c2CN(C(=O)c2cc4c(Cl)cccn4c2)CC3)CC1 [Example 3, 5-(8-chloroindolizine-2-carbonyl)-N-[1-(methoxymethyl)cyclopropyl]-N-methyl-2H,4H,5H,6H,7H-pyrazolo[4,3-c]pyridine-3-carboxamide] | < 5 | < 1
2 | COCC1(N(C)C(=O)c2[nH]nc3c2CN(C(=O)c2cc4cccc(Cl)n4c2)CC3)CC1 [Example 4, 5-(5-chloroindolizine-2-carbonyl)-N-[1-(methoxymethyl)cyclopropyl]-N-methyl-2H,4H,5H,6H,7H-pyrazolo[4,3-c]pyridine-3-carboxamide] | 5 to 10 | < 1
3 | COCC1(N(C)C(=O)c2[nH]nc3c2CN(C(=O)c2cc4c(F)cc(F)cn4c2)CC3)CC1 [Example 5, 5-(6,8-difluoroindolizine-2-carbonyl)-N-[1-(methoxymethyl)cyclopropyl]-N-methyl-2H,4H,5H,6H,7H-pyrazolo[4,3-c]pyridine-3-carboxamide] | < 5 | < 1
4 | CN(C(=O)c1cnn2c1CN(C(=O)c1cc3c(Cl)cccn3c1)CC2)C1(COC(F)F)CC1 [Example 6, 5-(8-chloroindolizine-2-carbonyl)-N-{1-[(difluoromethoxy)methyl]cyclopropyl}-N-methyl-4H,5H,6H,7H-pyrazolo[1,5-a]pyrazine-3-carboxamide] | < 5 | < 1
5 | CN(C(=O)c1cnn2c1CN(C(=O)c1cc3c(F)cc(F)cn3c1)CC2)C1(COC(F)F)CC1 [Example 7, 5-(6,8-difluoroindolizine-2-carbonyl)-N-{1-[(difluoromethoxy)methyl]cyclopropyl}-N-methyl-4H,5H,6H,7H-pyrazolo[1,5-a]pyrazine-3-carboxamide] | < 5 | < 1
6 | CN(C(=O)c1cnn2c1CN(C(=O)c1cc3cccc(Cl)n3c1)CC2)C1(COC(F)F)CC1 [Example 8, 5-(5-chloroindolizine-2-carbonyl)-N-{1-[(difluoromethoxy)methyl]cyclopropyl}-N-methyl-4H,5H,6H,7H-pyrazolo[1,5-a]pyrazine-3-carboxamide] | < 5 | 1 to 10
7 | CC1Cn2ncc(C(=O)N(C)C3(COC(F)F)CC3)c2CN1C(=O)c1cc2c(Cl)cccn2c1 (stereo not shown) [Example 9, 5-(8-chloroindolizine-2-carbonyl)-N-{1-[(difluoromethoxy)methyl]cyclopropyl}-N,6-dimethyl-4H,5H,6H,7H-pyrazolo[1,5-a]pyrazine-3-carboxamide] | < 5 | < 1
8 | CC1Cc2[nH]nc(-c3cscn3)c2CN1C(=O)c1cc2c(Cl)cccn2c1 (stereo not shown) [Example 10, 8-chloro-2-[6-methyl-3-(1,3-thiazol-4-yl)-1H,4H,5H,6H,7H-pyrazolo[4,3-c]pyridine-5-carbonyl]indolizine] | < 5 | < 1
9 | CC1Cc2[nH]nc(-c3cscn3)c2CN1C(=O)c1cc2cccc(C(F)(F)F)n2c1 (stereo not shown) [Example 12, 2-[6-methyl-3-(1,3-thiazol-4-yl)-1H,4H,5H,6H,7H-pyrazolo[4,3-c]pyridine-5-carbonyl]-5-(trifluoromethyl)indolizine] | < 100 | 1 to 10
10 | Cc1cccc2cc(C(=O)N3Cc4c(-c5cscn5)n[nH]c4CC3C)cn12 (stereo not shown) [Example 16, 5-methyl-2-[6-methyl-3-(1,3-thiazol-4-yl)-1H,4H,5H,6H,7H-pyrazolo[4,3-c]pyridine-5-carbonyl]indolizine] | 5 to 10 | 1 to 10
11 | Cc1cccn2cc(C(=O)N3Cc4c(-c5cscn5)n[nH]c4CC3C)cc12 (stereo not shown) [Example 17, 8-methyl-2-[6-methyl-3-(1,3-thiazol-4-yl)-1H,4H,5H,6H,7H-pyrazolo[4,3-c]pyridine-5-carbonyl]indolizine] | < 5 | < 1
12 | CC1Cc2[nH]nc(-c3cscn3)c2CN1C(=O)c1cc2c(Cl)cc(Cl)cn2c1 (stereo not shown) [Example 18, 6,8-dichloro-2-[6-methyl-3-(1,3-thiazol-4-yl)-1H,4H,5H,6H,7H-pyrazolo[4,3-c]pyridine-5-carbonyl]indolizine] | 5 to 10 | < 1
13 | CC1Cc2[nH]nc(-c3cscn3)c2CN1C(=O)c1cc2cc(Cl)ccn2c1 (stereo not shown) [Example 19, 7-chloro-2-[6-methyl-3-(1,3-thiazol-4-yl)-1H,4H,5H,6H,7H-pyrazolo[4,3-c]pyridine-5-carbonyl]indolizine] | 5 to 10 | < 1
14 | CC1Cc2[nH]nc(-c3cscn3)c2CN1C(=O)c1cc2cccc(Cl)n2c1 (stereo not shown) [Example 20, 5-chloro-2-[6-methyl-3-(1,3-thiazol-4-yl)-1H,4H,5H,6H,7H-pyrazolo[4,3-c]pyridine-5-carbonyl]indolizine] | 5 to 10 | < 1
15 | CC(NC(=O)c1[nH]nc2c1CN(C(=O)c1cc3c(Cl)cccn3c1)CC2)C(F)(F)F (stereo not shown) [Example 49, 5-(8-chloroindolizine-2-carbonyl)-N-(1,1,1-trifluoropropan-2-yl)-2H,4H,5H,6H,7H-pyrazolo[4,3-c]pyridine-3-carboxamide] | – | 1 to 10
16 | CC(NC(=O)c1cnn2c1CN(C(=O)c1cc3ccccn3c1)CC2)C(F)(F)F (stereo not shown) [Example 50, 5-(indolizine-2-carbonyl)-N-(1,1,1-trifluoropropan-2-yl)-4H,5H,6H,7H-pyrazolo[1,5-a]pyrazine-3-carboxamide] | – | < 1
17 | CC(NC(=O)c1[nH]nc2c1CN(C(=O)c1cc3ccccn3c1)CC2)C(F)(F)F (stereo not shown) [Example 52, 5-(indolizine-2-carbonyl)-N-[1,1,1-trifluoropropan-2-yl]-2H,4H,5H,6H,7H-pyrazolo[4,3-c]pyridine-3-carboxamide] | – | < 100
